For 35 compounds, melting point results are on record in a melting point compilation (Tetko et al.; mined from patent text by program, amines drawn as free bases though some values may be those of a salt).

By melting point is commonly meant the temperature of the solid-liquid transition.

Each structure is given as a SMILES string.

Compound `CC(C)(C)NC(=O)c1ccccc1Cc1ccccc1` returned a melting point of 91 to 92 °C.
The compound `CNC(=O)n1c(NC(=O)c2ccc(NC(=N)N)cc2)nc2ccccc21` showed a melting point of 188 to 190 °C.
With `CC1(C)Cn2c(nc3c(N)nc4ccccc4c32)CN1S(C)(=O)=O`, the melting point is 227 to 228 °C.
Consider `N#Cc1n[nH]c2nc(N3CCN(CCO)CC3)ccc12`, for which the melting point lay within 232 to 233 °C.
`CC(C)(C)c1ncn(Sc2ncc([N+](=O)[O-])s2)n1` registered a melting point of 219 to 221 °C.
`O=C(O)[C@@H](CCCN1C(=O)c2ccccc2C1=O)NS(=O)(=O)c1ccc(Oc2ccccc2)cc1` had a melting point of 139 to 140 °C.
Consider `COc1cccc(-c2n[nH]c(-c3ccccc3CO)n2)c1`, for which the melting point is 155 to 156 °C.
On to `OC(CCCCCCCCOCc1ccccc1)c1ccc(OCc2ccccc2)c(OCc2ccccc2)c1` (stereo not given), for which the melting point lay in the range of 46 to 48 °C.
The compound `CCCc1c2oc(C(=O)O)cc(=O)c2cc2c(=O)ccn(Cc3ccccc3)c12` yielded a melting point above 250 °C.
The compound `CC(C)OC(=O)N=C1SCS1` returned a melting point of 72 to 73 °C.
The compound `CC(=O)Cn1cnc2c1c(=O)n(CC1CC1)c(=O)n2Cc1ccccc1` displayed a melting point of 138 °C.
As for `CCS(=O)(=O)Nc1cccc(C=C2c3ccccc3CCc3ccccc32)c1`, the figure is 180 °C; as for `Cn1nc(-c2cccnc2)c(C=Cc2ccccc2C(=O)O)c1Cl`, 183 to 185 °C.
Turning to `COc1cccc(C(N)=O)c1[N+](=O)[O-]`, the melting point fell in the range of 212 to 214 °C.
Compound `CCCCNC1NC(=O)N(c2cccc(C(F)(F)F)c2)C(=O)N1` registered a melting point of 245 to 247 °C.
Next, `CCCCCC(=O)NC[C@H](O)CC(=O)NN`: 172 °C.
The compound `O=C1NN=C(c2ccc(NC(=O)C3(Cl)CC3)cc2)C2CC12` (stereo not given) displayed a melting point of 221 to 222 °C.
`CC(=O)Nc1cccc(C(=O)NCc2ccc(-n3c(-c4cccnc4N)nc4cc(C)cnc43)cc2)c1`: the melting point was in the range of 180 to 181 °C.
In turn, `COC(=O)C1=C(C)NC(C)=C(C(=O)OC)C1c1ccccc1F` had a melting point of 206 to 208 °C.
As for `Oc1ccc(-c2cnccn2)cc1`, the figure is 216 to 217 °C.
Consider `COc1ccc(F)cc1C(C)(C)CC(O)(Cc1cccc(-c2cccnc2)c1)C(F)(F)F` (stereo not given), for which the melting point was 148 to 150 °C.
`CCOC(=O)c1cnc2c(cnn2CCC(C)C)c1O`: the melting point lay within 65 to 70 °C.
Regarding `COc1cnnc(Cl)c1`, the melting point lay in the range of 98 to 100 °C.
For the compound `Cc1nc2c(O)c(CCC(=O)c3ccccc3)c(C(=O)N3CCC3)cc2n1C`, the melting point lay in the range of 242 to 243 °C.
As for `Cc1cc(C)cc(CCCn2c(=O)c3c(N4CCN(C)CC4)cc(Cl)cc3n(Cc3ccccc3)c2=O)c1`, the figure is 67 to 73 °C; as for `CC(C)CN1C(=O)[C@@H](CC(=O)O)N[C@H](c2ccccc2Cl)c2cc(Cl)ccc21`, 184 to 188 °C; as for `Cn1c(C(F)(F)F)cc(=O)n(-c2ccc(OCc3ccc(Cl)cc3)cc2F)c1=O`, 134 to 135 °C.
The compound `CCC(=O)N(CC)c1cccc(-c2ccc3nnc(C)n3n2)c1` gave a melting point of 145 to 148 °C.
`CN(C(=O)Nc1ccc(Cl)c(Cl)c1)C(Cl)C(Cl)(Cl)Cl` (stereo not given): the melting point lay within 132 to 140 °C.
Regarding `Cc1ccc(-c2nn(Cc3ccccc3)c(N)c2C#N)cc1`, the melting point was in the range of 162 to 163 °C.
Compound `CC(=O)OCc1cn2c(n1)CN=C(c1ccccc1F)c1cc(Cl)ccc1-2` had a melting point of 134 to 136 °C.
Compound `CCc1nc2c(C)c(S(=O)(=O)N(C)C)c(C)nc2n1Cc1ccc(-c2ccccc2-c2c(OC(C)C)c(=O)c2=O)cc1` came in with a melting point of 80 °C.
As for `C(=NNc1ccccc1)c1cccnc1`, the figure is 156 °C; as for `N#CCCNC(=O)c1n[nH]cc1NC(=O)c1ccccn1`, 223 to 224 °C; as for `Cc1ccc(-c2cncn2-c2ccc(S(C)(=O)=O)cc2)cc1F`, 147 °C.
